Experimental data as given in patent US9856247B2, “4-methyl-dihydropyrimidines for the treatment and prophylaxis of Hepatitis B virus infection” (Hoffmann-La Roche Inc., priority 2012, dated 2018).
Where two headings read alike, the source gives them in different places.

Experiments:
HBV DNA = assay: Anti-HBV activity in HepDE19 cells (HBV DNA dot-blot); type: cell-based, Hepatitis B virus (HBV)
Description: Cells and culture conditions: HepDE19 (Haitao Guo et al, Journal of Virology, 81, November 2007, 12472-12484; Richeng Mao et al, Journal of Virology, 85, January 2011, 1048-1057) cells were derived from HepG2 (ATCC, American Type Culture Collection) cells through transfection with pTet-off plasmid (Clontech) that expresses the Tet-responsive transcriptional activator and pTREHBVDE plasmid in which HBV pgRNA expression is controlled by a CMV early promoter with a tetracycline-responsive element. The transfected cells were selected with G418 (also known as Genticin, purchased from Invitrogen). […] These cells were maintained in Dulbecco's modified Eagle's medium (DMEM)-F12 medium (Invitrogen) supplemented with 10% fetal bovine serum, 100 U/ml penicillin, and 100 μg/ml streptomycin, 0.5 mg/ml of G418 and 1 μg/ml tetracycline.
Anti-HBV activity and cytotoxicity: HepDE19 cells were seeded into 96-well plates (3×10^4 cells/well) with tetracycline-free medium and incubated overnight at 37° C. The test or control compounds were serially half-log diluted with medium and added into the plates (the final concentration of DMSO kept at 0.5% in each well). Five days after compound treatment, cells were washed with PBS and lysed with 50 mM Tris-1 mM EDTA-0.2% CA-630 (pH 8.0) at 37° C. for 20 min. After centrifugation to remove nuclei and other debris, the supernatant was transferred into a new plate and incubated with 2M NaOH/20×SSC (3M NaCl, 0.3M Sodium citrate, pH7.0) at rt for 30 min. Then the samples were transferred to nylon membrane and neutralized with 1M Tris (pH7.4)/2M NaCl. The presence of HBV DNA was detected by dot-blot with DIG-labeled HBV specific DNA probe and quantified by dot density. The compound concentrations that inhibited HBV DNA by 50% (EC50) were determined (See Table 1).

in vitro = conditions: human
Experimental: The transfected cells were selected with G418 (also known as Genticin, purchased from Invitrogen). […] These cells were maintained in Dulbecco's modified Eagle's medium (DMEM)-F12 medium (Invitrogen) supplemented with 10% fetal bovine serum, 100 U/ml penicillin, and 100 μg/ml streptomycin, 0.5 mg/ml of G418 and 1 μg/ml tetracycline.
To determine if the anti-HBV effect of compound is due to cytotoxicity, HepDE 19 cells (5×10^3 cells/well) were seeded into 96-well plates and compounds were treated as described above. […] Four hours after incubation at 37° C., the absorbance at wavelengths of 450 nm and 630 nm (OD450 and OD630) was recorded by a plate reader.

[1] = Hepatitis B virus, 120 h, HepDE19 cells, five days after compound treatment, concentration that inhibited HBV DNA by 50%, read-out: HepDe19 EC50
[2] = Hepatitis B virus, HepDE19, 120 h, read-out: HepDe19 EC50

Row | Structure (SMILES) | EC50 (HBV DNA; [1]) [µM] | CC50 at 5 days (in vitro) [µM] | EC50 (HBV DNA; read-out: EC50 value, HBV DNA reduction in HepDE19 cell based assays) [µM] | EC50 (HBV DNA; [2]) [µM]
1 | COC(=O)C1=C(CN2CC(F)(F)CC2CCCO)NC(c2nccs2)=N[C@@]1(C)c1ccc(F)cc1 (stereo partly drawn) [Example 56, (S)-6-[4,4-difluoro-2-(3-hydroxy-propyl)-pyrrolidin-1-ylmethyl]-4-(4-fluoro-phenyl)-4-methyl-2-thiazol-2-yl-1,4-dihydro-pyrimidine-5-carboxylic acid methyl ester] | 0.66 | 90 | – | –
2 | COC(=O)C1=C(CN2CC(F)(F)C[C@H]2C(C)(C)O)NC(c2nccs2)=N[C@@]1(C)c1ccc(F)cc1 [Example 54, (S)-6-[(S)-4,4-difluoro-2-(1-hydroxy-1-methyl-ethyl)-pyrrolidin-1-ylmethyl]-4-(4-fluoro-phenyl)-4-methyl-2-thiazol-2-yl-1,4-dihydro-pyrimidine-5-carboxylic acid methyl ester] | 0.7 | 50.4 | – | –
3 | COC(=O)C1=C(CN2CC(F)(F)C[C@H]2C(=O)O)NC(c2ccc(F)cn2)=N[C@@]1(C)c1ccc(F)cc1 [Example 18, (S)-6-((S)-2-Carboxy-4,4-difluoro-pyrrolidin-1-ylmethyl)-4-(4-fluoro-phenyl)-2-(5-fluoro-pyridin-2-yl)-4-methyl-1,4-dihydro-pyrimidine-5-carboxylic acid methyl ester] | 0.57 | 25 | – | –
4 | CCOC(=O)C1=C(CN2CC(F)(F)C[C@H]2C(=O)O)NC(c2nccs2)=N[C@@]1(C)c1ccc(F)c(F)c1 [Example 24, (S)-6-((S)-2-carboxy-4,4-difluoro-pyrrolidin-1-ylmethyl)-4-(3,4-difluoro-phenyl)-4-methyl-2-thiazol-2-yl-1,4-dihydro-pyrimidine-5-carboxylic acid ethyl ester] | 0.8 | ≥ 100 | – | –
5 | COC(=O)C1=C(CN2CC(F)(F)C[C@@]2(C)C(=O)O)NC(c2nccs2)=N[C@]1(C)c1ccc(F)cc1 [Example 36, (R)-6-((S)-2-carboxy-4,4-difluoro-2-methyl-pyrrolidin-1-ylmethyl)-4-(4-fluoro-phenyl)-4-methyl-2-thiazol-2-yl-1,4-dihydro-pyrimidine-5-carboxylic acid methyl ester] | 7.49 | ≥ 100 | – | –
6 | CCOC(=O)C1=C(CN2CC(F)(F)C[C@H]2C(=O)O)NC(c2nccs2)=N[C@]1(C)c1ccc(F)c(F)c1 [Example 28, (R)-6-((S)-2-carboxy-4,4-difluoro-pyrrolidin-1-ylmethyl)-4-(3,4-difluoro-phenyl)-4-methyl-2-thiazol-2-yl-1,4-dihydro-pyrimidine-5-carboxylic acid ethyl ester] | 7.48 | ≥ 100 | – | –
7 | COC(=O)C1=C(CN2CC(F)(F)C[C@H]2c2nnn[nH]2)NC(c2nccs2)=N[C@@]1(C)c1ccc(F)cc1 [Example 58, (S)-6-[(S)-4,4-difluoro-2-(1H-tetrazol-5-yl)-pyrrolidin-1-ylmethyl]-4-(4-fluoro-phenyl)-4-methyl-2-thiazol-2-yl-1,4-dihydro-pyrimidine-5-carboxylic acid methyl ester] | 1.02 | ≥ 100 | – | –
8 | COC(=O)c1c(C)nc(-c2ncc(F)cc2F)nc1-c1ccc(F)cc1Cl [XLVI] | – | – | > 100 | –
9 | COC(=O)C1=C(CN2CC(F)(F)C[C@H]2C(=O)Nc2nccs2)NC(c2nccs2)=N[C@@]1(C)c1ccc(F)cc1 [Example 52, (S)-6-[(S)-4,4-difluoro-2-(thiazol-2-ylcarbamoyl)-pyrrolidin-1-ylmethyl]-4-(4-fluoro-phenyl)-4-methyl-2-thiazol-2-yl-1,4-dihydro-pyrimidine-5-carboxylic acid methyl ester] | 5.43 | 4.07 | – | –
10 | COC(=O)C1=C(CN2CC(F)(F)C[C@@H]2C(=O)O)NC(c2nccs2)=NC1(C)c1ccc(F)cc1 (stereo partly drawn) [Example 12, 6-(2-(R)-Carboxy-4,4-difluoro-pyrrolidin-1-ylmethyl)-4-(4-fluoro-phenyl)-4-methyl-2-thiazol-2-yl-1,4-dihydro-pyrimidine-5-carboxylic acid methyl ester] | – | – | – | 6.59
11 | COC(=O)C1=C(CN(CC(=O)O)CC(F)(F)F)NC(c2nccs2)=N[C@@]1(C)c1ccc(F)cc1 [Example 44, (S)-6-{[carboxymethyl-(2,2,2-trifluoro-ethyl)-amino]-methyl}-4-(4-fluoro-phenyl)-4-methyl-2-thiazol-2-yl-1,4-dihydro-pyrimidine-5-carboxylic acid methyl ester] | 21.5 | ≥ 100 | – | –
12 | COC(=O)C1=C(CN2C[C@@H](F)C[C@H]2C(=O)O)NC(c2nccs2)=N[C@@]1(C)c1ccc(F)cc1 [Example 39, (S)-6-((2S,4S)-2-carboxy-4-fluoro-pyrrolidin-1-ylmethyl)-4-(4-fluoro-phenyl)-4-methyl-2-thiazol-2-yl-1,4-dihydro-pyrimidine-5-carboxylic acid methyl ester] | 10.5 | ≥ 100 | – | –
13 | COC(=O)C1=C(CN2CC(F)(F)C[C@H]2C(=O)OC)NC(c2nccs2)=N[C@@]1(C)c1ccc(F)cc1 [Example 45, (S)-6-((S)-4,4-difluoro-2-methoxycarbonyl-pyrrolidin-1-ylmethyl)-4-(4-fluoro-phenyl)-4-methyl-2-thiazol-2-yl-1,4-dihydro-pyrimidine-5-carboxylic acid methyl ester] | – | ≥ 100 | – | –
14 | COC(=O)C1=C(CN2CC(F)(F)CC2C(N)=O)NC(c2nccs2)=N[C@@]1(C)c1ccc(F)cc1 (stereo partly drawn) [Example 47, (S)-6-(2-carbamoyl-4,4-difluoro-pyrrolidin-1-ylmethyl)-4-(4-fluoro-phenyl)-4-methyl-2-thiazol-2-yl-1,4-dihydro-pyrimidine-5-carboxylic acid methyl ester] | 0.048 | ≥ 100 | – | –
15 | COC(=O)C1=C(CN2CC(F)(F)C[C@H]2C(=O)O)NC(c2ncc(C)s2)=NC1(C)c1ccc(F)cc1 (stereo partly drawn) [Example 19, 6-((S)-2-Carboxy-4,4-difluoro-pyrrolidin-1-ylmethyl)-4-(4-fluoro-phenyl)-4-methyl-2-(5-methyl-thiazol-2-yl)-1,4-dihydro-pyrimidine-5-carboxylic acid methyl ester] | 16.7 | > 100 | – | –
16 | COC(=O)C1=C(CN2CC(F)(F)C[C@@]2(C)C(=O)O)NC(c2nccs2)=N[C@@]1(C)c1ccc(F)cc1 [Example 20, (S)-6-((S)-2-Carboxy-4,4-difluoro-2-methyl-pyrrolidin-1-ylmethyl)-4-(4-fluoro-phenyl)-4-methyl-2-thiazol-2-yl-1,4-dihydro-pyrimidine-5-carboxylic acid methyl ester] | 2.8 | > 100 | – | –
17 | COC(=O)C1=C(CN2CC(F)(F)C[C@H]2C(=O)O)NC(c2ncc(C)s2)=N[C@@]1(C)c1ccc(F)cc1 [Example 37, (S)-6-((S)-2-carboxy-4,4-difluoro-pyrrolidin-1-ylmethyl)-4-(4-fluoro-phenyl)-4-methyl-2-(5-methyl-thiazol-2-yl)-1,4-dihydro-pyrimidine-5-carboxylic acid methyl ester] | 0.47 | 85 | – | –
18 | COC(=O)C1=C(CN2CC(F)(F)C[C@H]2C(=O)O)NC(c2nccs2)=N[C@@]1(C)c1ccc(F)cc1 [Example 13, (S)-6-((S)-2-Carboxy-4,4-difluoro-pyrrolidin-1-ylmethyl)-4-(4-fluoro-phenyl)-4-methyl-2-thiazol-2-yl-1,4-dihydro-pyrimidine-5-carboxylic acid methyl ester] | – | – | – | 0.15
19 | COC(=O)C1=C(CN2CC(F)(F)C[C@H]2C(=O)O)NC(c2ccc(F)s2)=N[C@@]1(C)c1ccc(F)cc1 [Example 38, (S)-6-((S)-2-carboxy-4,4-difluoro-pyrrolidin-1-ylmethyl)-4-(4-fluoro-phenyl)-2-(5-fluoro-thiophen-2-yl)-4-methyl-1,4-dihydro-pyrimidine-5-carboxylic acid methyl ester] | 2.03 | – | – | –
20 | COC(=O)C1=C(CN2CC(F)(F)C[C@H]2C(=O)O)NC(c2nccs2)=NC1(C)c1ccc(F)cc1 (stereo partly drawn) [Example 11, 6-(2-(S)-Carboxy-4,4-difluoro-pyrrolidin-1-ylmethyl)-4-(4-fluoro-phenyl)-4-methyl-2-thiazol-2-yl-1,4-dihydro-pyrimidine-5-carboxylic acid methyl ester] | – | – | – | 0.46
